Measurements reported in patent US12663562B2, “Polysaccharide hydrogel optical fibers and their fabrication and use” (The Board of Trustees of the Leland Stanford Junior …, priority 2021, dated 2026).

What was measured:
Format in all cases: cell-based
RV122 cancer cells = assay: Optical fiber anti-cancer drug testing (RFP-level transmission, calcein profiling, image quantification); settings: for calcein activity profiling (slope of calcein conversion): RV122 cancer cells after culture with drug; for image quantification of native protein expression (RFP) and calcein metabolization: microscopy validation, RV122 cancer cells
Method: (§1) To validate the possibility of light carrying information upon interaction with fluorescent molecules, 3T3 fibroblasts were stained with two model fluorescent markers of different wavelengths, namely Orange Cell Tracker CMRA and Calcein AM (Invitrogen) according to manufacturer's instructions. Briefly, 3T3 cells in suspension were incubated with each marker for 30 minutes under 37° C., washed with PBS, and introduced in the optical fiber core as described above. Fibers were then fabricated and aligned in the input-output setup as previously described the light source and spectrometer. Output spectra were collected and spectral ratios were obtained by dividing the spectra of fluorescent-tagged cell-laden fibers to those without fluorescent molecules, in order to confirm the presence of transmission dips in agreement with the marker's excitation curves. For performing calcein AM overtime metabolic tracking, 4 cm-long fibers with unstained cells were aligned in the optical readout setup, and 10 μL of a 1:100 Calcein AM solution in CaPBS was added dropwise along the optical fiber's length. The spectral output was then collected every minute for a total of 10 minutes after the beginning of the calcein AM metabolization. The 495 nm normalized transmission values were obtained by normalizing all spectral curves to their maximum and extracting the normalized intensity values as an average of the 493-495 nm window. These were then plotted overtime.
(§2) LNCaP, 22Rv1, and DU145 cells were purchased from the American Type Culture Collection (ATCC; Manassas, VA). All cell lines were authenticated through Stanford Functional Genomics Facility. FUCRW plasmid was a kind gift from Dr. Owen Witte's laboratory at University of California Los Angeles. 22Rv1 and DU145 cells were infected with FUCRW virus expressing red fluorescent protein (RFP). RFP signal was confirmed 72 hours post infection. LNCaP-RFP-Trop2-OV cells expressing RFP and Trop2 oncogene were generated as previously described ^43. All cells were cultured in RPMI medium supplemented with 10% FBS, 4 mM L-glutamine, and 1% penicillin/streptomycin.
(§3) Spectral fingerprinting tests with the different cell lines were performed by integrating them within optical hydrogel fibers as described in the previous section. Briefly, cancer cells were resuspended in the core material at a density of 10 M/mL and cultured in different conditions, namely control medium, 1.5 μM Cisplatin (Biovision) or 1 μM Staurosporine (Biovision). After 48 h of culture, the living optical fibers were washed twice with PBS to remove media remains that could interfere with optical readouts (e.g., Phenol Red). Before measurement, fibers were placed in a 1 mM CaCl2) solution to facilitate their manipulation and were then aligned in the optical characterization setup with spectrometer connection. RFP-level transmission readouts were immediately obtained from the first output collected, and calcein activity overtime was then tracked by the addition of calcein and spectral recording every minute for 10 minutes, as described in the previous section. […] Both RFP and calcein signals were analyzed in several pictures per replicate via Cell Profiler, in order to compare the relative post-incubation signal intensities to the relative decreases in fiber optics transmission at each specific wavelength instantly (RFP) and overtime (calcein).

[1] = test system: LnCAP-RFP-Trop2-OV cancer cells; assay: Digitalization and quantification of 3D cancer invasive proliferation in living optical fibers (output power, RFP-level transmission)
Method: In order to evaluate the invasive proliferation of encapsulated cancer cells over time and quantify this response through optics upon exposure to different levels of the anti-proliferative drug cisplatin, the core material was modified by blending alginate with GelTrex (Growth-Factor Reduced Basement Membrane, Thermofisher) at a 50:50 ratio. Fibers with Cells were fabricated as described before with a 10 million/mL density and were cultured for 1 week to observe the cancer tissue development and the formation of fiberoid (fiber-shaped organoids) structures. To do so, fibers were incubated with Calcein AM 1:500 (Invitrogen) and Hoechst 33342 1:1000 (Thermo Scientific), washed with PBS and imaged under confocal microscope (Zeiss). As model cell line, we used the RFP-expressing LNCaP-RFP-Trop2-OV due to its aggressiveness and relevance in metastatic events. To then quantify the effect of cisplatin in the impedance of 3D tumor growth, fibers were cultured over a 5-days period under control conditions and increasing concentrations of cisplatin (1.5, 15 and 150 μM). After each time point, fibers were washed twice with CaPBS, briefly dipped in 1 mM CaCl2) and aligned in the optical characterization setup. Two types of immediate readouts were acquired: output power via powermeter reading and spectral response through spectrometer connection. Output power was directly used as an indicator of light attenuation induced by tumor growth and spectral data was processed to extract RFP-level transmission values, as plotted in the maintext. In parallel, fibers were also axially sectioned and imaged in confocal microscope for observing the distribution of cancer cells and aggregates within the fiber structure overtime and validate the fiber optics readouts.

DU145 cells = assay: Spectral fingerprinting (RFP-level transmission, real-time calcein AM metabolism) of cancer cells in living optical fibers; settings: DU145 cells in fiber core, 48 h culture, 1.5 μM cisplatin or 1 μM staurosporine
Method: as §1
as §2, with “LNCaP-RFP-Trop2-OV cells expressing RFP and Trop2 oncogene were generated as previously described ^43. All cells were cultured in RPMI medium supplemented with 10% FBS, 4 mM L-glutamine, and 1% penicillin/streptomycin.” left out
as §3, with “Briefly, cancer cells were resuspended in the core material at a density of 10 M/mL and cultured in different conditions, namely control medium, 1.5 μM Cisplatin (Biovision) or 1 μM Staurosporine (Biovision).” left out, “Before measurement, fibers were placed in a 1 mM CaCl2) solution to facilitate their manipulation and were then aligned in the optical characterization setup with spectrometer connection.” left out

SMILES	calcein activity profiling (slope of calcein conversion) (RV122 cancer cells)	image quantification of native protein expression (RFP) and calcein metabolization (RV122 cancer cells)	RFP expression (RFP-level transmission) ([1]; cisplatin 1.5 µM)	cancer growth (optical fiber output power) ([1]; cisplatin 1.5 μM, up to 5 days)	RFP expression (RFP-level transmission) ([1]; cisplatin 15 μM)	cancer growth (optical fiber output power) ([1]; cisplatin 15 μM, up to 5 days)	RFP expression (RFP-level transmission) ([1]; cisplatin 150 μM, after 1 day of culture)	cancer growth / invasive proliferation (optical fiber output power) ([1]; cisplatin 150 μM, up to 5 days)	RFP expression (RFP-level transmission) (DU145 cells)	capacity of cells to metabolize calcein (calcein AM real-time profile) (DU145 cells)	native fluorescence, RFP-level transmission (RV122 cancer cells; RV122 cancer cells in fibers after drug exposure)
N.N.[Cl][Pt][Cl] [cisplatin]	decrease in the slope	moderate effect	some effect in the protein's expression by day 5	no significant impact	noticeable effect after day 3	prevented considerable growth after 3 days	significant decrease in expression	efficiently inhibited the invasive proliferation	little impact	little impact	
CN[C@@H]1C[C@H]2O[C@@](C)([C@@H]1OC)n1c3ccccc3c3c4c(c5c6ccccc6n2c5c31)C(=O)NC4 [staurosporine]	no longer possible to observe metabolic calcein conversion	more prominent effects							significant reduction in RFP expression	drastic inhibition	significant decrease in fluorescent
